The target of the assay is T1, Recombinant human cathepsin A (Homo sapiens, UniProt P10619).
T1 construct: Recombinant human cathepsin A (residues 29-480, with a C-terminal 10-His tag); 10-His (C); purchased R&D Systems 1049-SE
T1 sequence (P10619 29-312 limits assumed): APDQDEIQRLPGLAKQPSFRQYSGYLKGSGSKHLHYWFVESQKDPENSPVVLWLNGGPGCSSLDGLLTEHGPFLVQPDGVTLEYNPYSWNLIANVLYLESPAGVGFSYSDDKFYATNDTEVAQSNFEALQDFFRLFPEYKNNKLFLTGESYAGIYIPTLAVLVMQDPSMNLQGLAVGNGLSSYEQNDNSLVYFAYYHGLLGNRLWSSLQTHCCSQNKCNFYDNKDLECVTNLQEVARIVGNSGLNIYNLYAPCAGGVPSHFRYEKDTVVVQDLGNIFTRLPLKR
T1 sequence (P10619 327-480 limits assumed): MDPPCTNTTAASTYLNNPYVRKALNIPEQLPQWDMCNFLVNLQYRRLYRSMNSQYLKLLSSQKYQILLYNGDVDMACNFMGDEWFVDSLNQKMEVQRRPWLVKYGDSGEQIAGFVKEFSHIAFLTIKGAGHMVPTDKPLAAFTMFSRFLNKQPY
Briefly: Cathepsin A inhibitory activity. Format: biochemical. As to conditions: pharmacological test "Cathepsin A inhibitory activity"; IC50 given as class A/B/C; read-out: Activity (2): Cathepsin A inhibitory activity, IC50 class. An outline of the steps:
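Read-out was microfluidic separation of cleaved vs. uncleaved Bodipy FL-bradykinin (2 μM), giving turnover, % inhibition and IC50. Compound and 833 ng/ml enzyme met for 15 min RT in pH 5.5 MES/DTT before substrate (15 min RT). The 29-480 His-tagged human enzyme was first activated by cathepsin L, then E-64 (10 μM).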

A value given as a limit tells only on which side of the number the result lay.

As usually defined, the IC50 is the concentration that gives 50% inhibition. As to `O=C(O)C[C@@H](NC(=O)c1cc(O)n(-c2ccccc2Cl)n1)c1ccc(-c2ccc(F)cc2)cc1` [Example 149], the IC50 is under 0.1 µM.

Take `O=C(O)CC(NC(=O)c1cc(O)n(-c2ccccc2F)n1)c1ccc(-c2ccccc2)cc1` (stereo not drawn) [Example 150]: the half-maximal inhibitory concentration (IC50) was under 0.1 µM.

For the compound `O=C(O)CC(NC(=O)c1cc(O)n(-c2ccncc2)n1)c1ccc(-c2ccccc2)cc1` (stereo not drawn) [Example 151], the IC50 fell in the range of 1 to 30 µM.

With `COc1cccc(-c2ccc(C(CC(=O)O)NC(=O)c3cc(O)n(-c4ccccc4F)n3)cc2)c1` (stereo not drawn) [Example 156], the IC50 lay within 0.1 to 1 µM.

With `COc1cccc(-c2ccc(C(CC(=O)O)NC(=O)c3cc(O)n(-c4ccccc4Cl)n3)cc2)c1` (stereo not drawn) [Example 157], the IC50 fell in the range of 0.1 to 1 µM.

Turning to `O=C(O)CC(NC(=O)c1cc(O)n(-c2ccccc2)n1)c1cccc2c1OCO2` (stereo not drawn) [Example 158], the IC50 was in the range of 0.1 to 1 µM.

Consider `O=C(O)C[C@H](NC(=O)c1cc(O)n(-c2ccccc2)n1)c1ccccc1Br` [Example 159], for which the concentration for half-maximal inhibition (IC50) was in the range of 0.1 to 1 µM.

For the compound `N#Cc1cccc([C@H](CC(=O)O)NC(=O)c2cc(O)n(-c3ccccc3)n2)c1` [Example 160], the half-inhibitory concentration (IC50) lay within 1 to 30 µM.

With `COc1ccc(C(CC(=O)O)NC(=O)c2cc(O)n(-c3ccccc3)n2)c(OC)c1` (stereo not drawn) [Example 161], the IC50 is 1 to 30 µM.

Regarding `COc1ccc(C(CC(=O)O)NC(=O)c2cc(O)n(-c3ccccc3)n2)c(Cl)c1` (stereo not drawn) [Example 162], the IC50 lay within 0.1 to 1 µM.

Consider `O=C(O)C[C@H](NC(=O)c1cc(O)n(-c2ccccc2)n1)c1ccc(F)cc1` [Example 163], for which the IC50 lay within 0.1 to 1 µM.

In the case of `O=C(O)C[C@H](NC(=O)c1cc(O)n(-c2ccccc2)n1)c1cccc(Cl)c1Cl` [Example 164], the half-inhibitory concentration (IC50) is under 0.1 µM.

For `COc1cccc([C@H](CC(=O)O)NC(=O)c2cc(O)n(-c3ccccc3)n2)c1` [Example 165], the IC50 lay within 1 to 30 µM.

Consider `O=C(O)C[C@H](NC(=O)c1cc(O)n(-c2ccccc2)n1)c1cccc(F)c1` [Example 166], for which the IC50 lay within 1 to 30 µM.

On to `O=C(O)C[C@H](NC(=O)c1cc(O)n(-c2ccccc2)n1)c1cccc(Cl)c1` [Example 167], for which the IC50 is 0.1 to 1 µM.

On to `O=C(O)CC(NC(=O)c1cc(O)n(-c2ccccc2)n1)c1cccc(Cl)c1Cl` (stereo not drawn) [Example 168], for which the IC50 was in the range of 0.1 to 1 µM.

Consider `COc1ccccc1[C@@H](NC(=O)c1cc(O)n(-c2ccccc2)n1)[C@@H](O)C(=O)O` [Example 169], for which the IC50 was in the range of 1 to 30 µM.

Turning to `COc1cccc([C@H](CC(=O)O)NC(=O)c2cc(O)n(-c3ccccc3)n2)c1OC` [Example 170], the IC50 was in the range of 0.1 to 1 µM.

Consider `O=C(O)CC(NC(=O)c1cc(O)n(-c2ccccc2)n1)c1ccc(-c2cccc(F)c2)cc1` (stereo not drawn) [Example 171], for which the IC50 is 0.1 to 1 µM.

Consider `O=C(O)CC(NC(=O)c1cc(O)n(-c2ccccc2)n1)c1cccc(Cl)c1F` (stereo not drawn) [Example 172], for which the IC50 lay within 0.1 to 1 µM.

Consider `O=C(O)CC(NC(=O)c1cc(O)n(-c2ccccc2)n1)c1cccc(Oc2ccc(Cl)cc2)c1` (stereo not drawn) [Example 173], for which the IC50 was 1 to 30 µM.

Consider `O=C(O)CC(NC(=O)c1cc(O)n(-c2ccc(F)cc2F)n1)c1cccc2c1OCO2` (stereo not drawn) [Example 174], for which the IC50 was in the range of 0.1 to 1 µM.

For the compound `O=C(O)C[C@H](NC(=O)c1cc(O)n(-c2ccc(F)cc2F)n1)c1ccccc1Br` [Example 175], the IC50 lay in the range of 0.1 to 1 µM.

For `N#Cc1ccc([C@H](CC(=O)O)NC(=O)c2cc(O)n(-c3ccc(F)cc3F)n2)cc1` [Example 176], the IC50 was 0.1 to 1 µM.

For `COc1ccccc1[C@H](CC(=O)O)NC(=O)c1cc(O)n(-c2ccc(F)cc2F)n1` [Example 177], the IC50 is 0.1 to 1 µM.

`COc1ccc(Cl)cc1C(CC(=O)O)NC(=O)c1cc(O)n(-c2ccc(F)cc2F)n1` (stereo not drawn) [Example 178]: the IC50 fell in the range of 1 to 30 µM.

Take `COc1ccc(C(CC(=O)O)NC(=O)c2cc(O)n(-c3ccc(F)cc3F)n2)c(Cl)c1` (stereo not drawn) [Example 179]: the IC50 is 0.1 to 1 µM.

Take `O=C(O)C[C@H](NC(=O)c1cc(O)n(-c2ccc(F)cc2F)n1)c1ccc(F)cc1` [Example 180]: the IC50 was 0.1 to 1 µM.

As to `O=C(O)C[C@H](NC(=O)c1cc(O)n(-c2ccc(F)cc2F)n1)c1cccc(Cl)c1Cl` [Example 181], the IC50 was under 0.1 µM.

`COc1cccc([C@H](CC(=O)O)NC(=O)c2cc(O)n(-c3ccc(F)cc3F)n2)c1` [Example 182]: the IC50 lay within 0.1 to 1 µM.

As to `O=C(O)C[C@H](NC(=O)c1cc(O)n(-c2ccc(F)cc2F)n1)c1cccc(F)c1` [Example 183], the IC50 is 0.1 to 1 µM.

As to `O=C(O)C[C@H](NC(=O)c1cc(O)n(-c2ccc(F)cc2F)n1)c1cccc(Cl)c1` [Example 184], the 50% inhibitory concentration (IC50) lay within 0.1 to 1 µM.

For `O=C(O)C[C@H](NC(=O)c1cc(O)n(-c2ccc(F)cc2F)n1)c1ccc(C(F)(F)F)cc1` [Example 185], the IC50 was in the range of 0.1 to 1 µM.

For `O=C(O)CC(NC(=O)c1cc(O)n(-c2ccc(F)cc2F)n1)c1cccc(Cl)c1Cl` (stereo not drawn) [Example 186], the IC50 was 0.1 to 1 µM.

Regarding `O=C(O)CC(NC(=O)c1cc(O)n(-c2ccc(F)cc2F)n1)c1ccc(OC(F)(F)F)cc1` (stereo not drawn) [Example 187], the half-inhibitory concentration (IC50) was 0.1 to 1 µM.

As for `COc1ccccc1[C@@H](NC(=O)c1cc(O)n(-c2ccc(F)cc2F)n1)[C@@H](O)C(=O)O` [Example 188], the IC50 is 1 to 30 µM.

Regarding `COc1cccc([C@H](CC(=O)O)NC(=O)c2cc(O)n(-c3ccc(F)cc3F)n2)c1OC` [Example 189], the IC50 is 0.1 to 1 µM.

Take `Cc1cccc([C@H](CC(=O)O)NC(=O)c2cc(O)n(-c3ccc(F)cc3F)n2)c1` [Example 190]: the IC50 was in the range of 0.1 to 1 µM.

Consider `Cc1cccc(C(CC(=O)O)NC(=O)c2cc(O)n(-c3ccc(F)cc3F)n2)c1C` (stereo not drawn) [Example 191], for which the IC50 is under 0.1 µM.

For the compound `O=C(O)CC(NC(=O)c1cc(O)n(-c2ccc(F)cc2F)n1)c1cccc(Cl)c1F` (stereo not drawn) [Example 192], the IC50 lay within 0.1 to 1 µM.

For the compound `O=C(O)CC(NC(=O)c1cc(O)n(-c2ccc(F)cc2F)n1)c1cccc(C(F)(F)F)c1Cl` (stereo not drawn) [Example 193], the IC50 fell in the range of 0.1 to 1 µM.

For `CCc1ccc(C(CC(=O)O)NC(=O)c2cc(O)n(-c3ccc(F)cc3F)n2)cc1` (stereo not drawn) [Example 194], the IC50 lay within 0.1 to 1 µM.

In the case of `Cc1ccc(C(CC(=O)O)NC(=O)c2cc(O)n(-c3ccc(F)cc3F)n2)c(C)c1` (stereo not drawn) [Example 195], the IC50 fell in the range of 0.1 to 1 µM.

As to `Cc1cc(F)ccc1C(CC(=O)O)NC(=O)c1cc(O)n(-c2ccc(F)cc2F)n1` (stereo not drawn) [Example 196], the IC50 is under 0.1 µM.

In the case of `O=C(O)CC(NC(=O)c1cc(O)n(-c2ccc(F)cc2F)n1)c1ccc(-c2ccccc2)cc1` (stereo not drawn) [Example 197], the IC50 is 0.1 to 1 µM.

In the case of `O=C(O)C[C@H](NC(=O)c1cc(O)n(-c2ccc(F)cc2F)n1)c1ccccc1C(F)(F)F` [Example 198], the IC50 lay in the range of 0.1 to 1 µM.

As for `O=C(O)CC(NC(=O)c1cc(O)n(-c2ccc(F)cc2F)n1)c1ccc(Oc2ccccc2)cc1` (stereo not drawn) [Example 199], the IC50 was in the range of 0.1 to 1 µM.

With `O=C(O)C[C@H](NC(=O)c1cc(O)n(-c2ccc(F)cc2F)n1)c1ccc(Cl)cc1` [Example 200], the IC50 was 0.1 to 1 µM.

For `O=C(O)C[C@H](NC(=O)c1cc(O)n(-c2ccc(F)cc2F)n1)c1ccc(Cl)cc1Cl` [Example 201], the IC50 lay within 0.1 to 1 µM.

On to `O=C(O)CC(NC(=O)c1cc(O)n(-c2ccc(F)cc2F)n1)c1ccc(-c2ccc(F)cc2)cc1` (stereo not drawn) [Example 202], for which the IC50 lay in the range of 0.1 to 1 µM.

As to `COc1ccc(C(CC(=O)O)NC(=O)c2cc(O)n(-c3ccccc3Cl)n2)c(C)c1` (stereo not drawn) [Example 203], the IC50 was 0.1 to 1 µM.

The values above are taken from patent US8664257B2, “Oxygen-substituted 3-heteroaroylamino-propionic acid derivatives and their use as pharmaceuticals” (Sanofi, priority 2010, dated 2014).
